Patent publication EP2132185B1, “PYRIMIDINYL-PIPERAZINES USEFUL AS DOPAMINE D3/D2 RECEPTOR LIGANDS” (Richter Gedeon Nyrt., priority 2007, dated 2008)

Columns and labels:
[1] = target: Alpha-1 receptor; assay: Alpha-1 receptor binding ([3H]-prazosine, rat cortical membrane preparation); conditions: for Ki: rat cortical membrane preparation, [3H]-prazosine, read-out: α-1 Ki
[2] = tested on: male Wistar rats; assay: Amphetamine-induced hypermotility; type: in vivo; conditions: Rattus norvegicus, 1 h, oral administration one hour before d-amphetamine 0.5 mg/kg sc., read-out: Inhibition of amphetamine-induced hypermotility (ED50, mg/kg)
Procedure: 4. Amphetamine-Induced Hypermotility
One hour after the oral administration of doses of the test compound or vehicle, male Wistar rats were subcutaneously treated with d-amphetamine (0.5 mg/kg, sc.) and were individually placed in activity cages for one hour. Locomotor activity was measured in a four-channel activity monitor equipped with infrared photobeams Horizontal movement was determined as the number of beam interruptions. Mean ± SE of horizontal activity data of each group was calculated. Percent inhibition of amphetamine-induced increase in locomotion was calculated for each dose of the tested compound. The ED-50 value was determined by linear regression fitted to the dose-response plot.

[3] = tested on: male Wistar rats; assay: Scopolamine-induced learning disturbance in the water-labyrinth; type: in vivo, rat; conditions: scopolamine 3 mg/kg ip., negative values mean further impairment
Procedure: 6. Scopolamine-Induced Learning Disturbance in the Water-Labyrinth
The learning process of rats was assessed in a 3-choice point water-labyrinth system. The number of directional turning errors was recorded in three daily trials for three experimental days. Male Wistar rats weighing 180-200 g (n=10 per groups) were treated orally with vehicle or the test compounds 1 hour before each daily session. Scopolamine (3 mg/kg ip.) as amnestic agent was injected 30 minutes prior to the first daily trial. Mean ± SE of errors committed in all the trials was calculated in each group. Percent inhibition of scopolamine-induced increase in the number of errors was calculated for each dose of the tested compound.

[4] = tested on: male Wistar rats; assay: Catalepsy test; type: in vivo, rat; conditions: for Catalepsy (MED, mg/kg): oral treatment, rats, minimum effective (cataleptic) dose
[5] = target: T1, D2 receptor (Rattus norvegicus, UniProt P61169); assay: D2 receptor binding ([3H]spiperone, rat brain striatal membrane preparation); conditions: for Ki: rat brain striatal membrane preparation, [3H]spiperone
T1 construct: on rat brain striatal membrane preparation; from tissue; host or cells: rat brain striatum membranes
T1 sequence (P61169 whole entry): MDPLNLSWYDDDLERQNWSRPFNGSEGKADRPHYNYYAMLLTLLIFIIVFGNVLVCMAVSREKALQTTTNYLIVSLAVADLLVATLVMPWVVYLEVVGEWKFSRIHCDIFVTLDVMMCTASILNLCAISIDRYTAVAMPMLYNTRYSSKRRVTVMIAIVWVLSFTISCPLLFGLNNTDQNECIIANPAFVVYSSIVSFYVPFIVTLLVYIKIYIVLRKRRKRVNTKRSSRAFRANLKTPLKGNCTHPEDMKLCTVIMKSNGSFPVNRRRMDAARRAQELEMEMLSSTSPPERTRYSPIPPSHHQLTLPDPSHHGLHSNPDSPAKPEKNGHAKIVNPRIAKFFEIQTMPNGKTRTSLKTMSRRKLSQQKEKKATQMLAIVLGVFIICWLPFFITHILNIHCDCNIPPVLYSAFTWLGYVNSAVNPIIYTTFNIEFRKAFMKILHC

[6] = target: T2, rat recombinant D3 receptors (Rattus norvegicus, UniProt P19020); assay: D3 receptor binding ([3H]spiperone); conditions: rat recombinant D3 receptors expressed in Sf9 cells
T2 construct: purchased Perkin-Elmer 6110139; host or cells: Sf9 cells
T2 sequence (P19020 whole entry): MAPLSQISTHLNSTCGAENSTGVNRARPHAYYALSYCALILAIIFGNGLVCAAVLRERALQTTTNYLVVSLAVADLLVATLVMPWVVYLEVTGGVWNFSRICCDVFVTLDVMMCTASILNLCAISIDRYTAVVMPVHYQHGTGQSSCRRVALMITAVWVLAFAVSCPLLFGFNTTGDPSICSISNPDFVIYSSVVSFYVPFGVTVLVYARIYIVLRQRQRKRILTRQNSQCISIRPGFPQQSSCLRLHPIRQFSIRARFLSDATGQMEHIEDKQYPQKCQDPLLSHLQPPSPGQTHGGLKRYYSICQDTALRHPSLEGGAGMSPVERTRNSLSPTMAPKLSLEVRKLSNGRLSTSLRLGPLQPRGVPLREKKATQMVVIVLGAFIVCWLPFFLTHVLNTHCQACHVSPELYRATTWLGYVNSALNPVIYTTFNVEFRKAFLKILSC

Ki [1] [nM]	D2 Sel. (D2/D3 selectivity, i.e., Ki for D2 receptor divided by Ki for D3 receptor) [5]	Ki [5] [nM]	Ki [6] [nM]	Structure (SMILES)	ED50 [2] [mg/kg]	also measured
> 1000	27	15 to 50	1 to 3	CNc1nc(Cl)c(Cl)c(N2CCN(CC[C@H]3CC[C@H](NC(N)=O)CC3)CC2)n1 [Compound 2, Trans-(4-{2-[4-(5,6-dichloro-2-methylamino-pyrimidin-4-yl)-piperazin-1-yl]-ethyl}-cyclohexyl)-urea]	–	–
> 1000	23	15 to 50	1 to 3	CCNc1nc(Cl)c(Cl)c(N2CCN(CC[C@H]3CC[C@H](NC(C)=O)CC3)CC2)n1 [Compound 6, trans-N-(4-{2-[4-(5,6-dichloro-2-ethylamino-pyrimidin-4-yl)-piperazin-1-yl]-ethyl}-cyclohexyl)-acetamide]	–	–
> 1000	–	–	1 to 3	CNc1nc(Cl)c(Cl)c(N2CCN(CC[C@H]3CC[C@H](NC(=O)N4CCOCC4)CC3)CC2)n1 [Compound 7, trans-morpholine-4-carboxylic acid (4-{2-[4-(5,6-dichloro-2-methylamino-pyrimidin-4-yl)-piperazin-1-yl]-ethyl}-cyclohexyl)-amide]	–	–
> 1000	7	15 to 50	1 to 3	CNc1nc(Cl)c(Cl)c(N2CCN(CCC3CCC(NC(=O)N(C)C)CC3)CC2)n1 (stereo not drawn) [Compound 8, trans-3-(4-{2-[4-(5,6-dichloro-2-methylamino-pyrimidin-4-yl)-piperazin-1-yl]-ethyl}-cyclohexyl-1,1-dimethyl-urea]	0.14	% inhibition ([3]; Dose 0.025 mg/kg orally): 38%; % inhibition ([3]; Dose 0.05 mg/kg orally): 65%; % inhibition ([3]; Dose 1 mg/kg orally): 31%; TI (therapeutic index - catalepsy MED divided by amphetamine hypermotility ED50) [4]: >179; Catalepsy (MED, mg/kg) [4]: >25 mg/kg
> 1000	17	5 to 15	< 1	CCNC(=O)N[C@H]1CC[C@H](CCN2CCN(c3nc(NC)nc(Cl)c3Cl)CC2)CC1 [Compound 10, Trans-1-(4-{2-[4-(5,6-dichloro-2-methylamino-pyrimidin-4-yl)-piperazin-1-yl]-ethyl}-cyclohexyl)-3-ethyl-urea]	–	–
> 1000	43	5 to 15	< 1	CCC(=O)NC1CCC(CCN2CCN(c3nc(NC)nc(Cl)c3Cl)CC2)CC1 (stereo not drawn) [Compound 11, trans-N-(4-{2-[4-(5,6-dichloro-2-methylamino-pyrimidin-4-yl)-piperazin-1-yl]-ethyl}-cyclohexyl-propionamide]	–	–
–	–	–	–	Cc1cc2c(s1)Nc1ccccc1N=C2N1CCN(C)CC1 [Olanzapine, reference compound]	1.8	% inhibition ([3]; Dose 1 mg/kg orally): -12%; % inhibition ([3]; Dose 3 mg/kg orally): -49%
–	–	–	–	Cc1nc2n(c(=O)c1CCN1CCC(c3noc4cc(F)ccc34)CC1)CCCC2 [Risperidone, reference compound]	0.15	α-1 Sel. ([1]; selectivity column under α-1): 0.07; % inhibition ([3]; Dose 0.5 mg/kg orally): -15%

Structure (SMILES)	Ki [1] [nM]	D2 Sel. (D2/D3 selectivity, i.e., Ki for D2 receptor divided by Ki for D3 receptor) [5]	Ki [5] [nM]	Ki [6] [nM]	ED50 [2] [mg/kg]	also measured
CNc1nc(Cl)c(Cl)c(N2CCN(CC[C@H]3CC[C@H](NC(C)=O)CC3)CC2)n1 [Compound 1, Tran-N-(4-{2-[4-(5,6-dichloro-2-methylamino-pyrimidin-4-yl)-piperazin-1-yl]-ethyl}-cyclohexyl)-acetamide]	> 1000	22	–	–	0.14	% inhibition ([3]; Dose 0.1 mg/kg orally): 36%; % inhibition ([3]; Dose 0.2 mg/kg orally): 58%; % inhibition ([3]; Dose 0.4 mg/kg orally): 61%; % inhibition ([3]; Dose 0.8 mg/kg orally): 44%; TI (therapeutic index - catalepsy MED divided by amphetamine hypermotility ED50) [4]: 714; Catalepsy (MED, mg/kg) [4]: 100 mg/kg
